Results published in patent US20110105623A1 (Biogenic Innovations, LLC, priority 2009, published 2011).
Values joined by “and” are separate entries in the source; they are usually repeats but may differ in a detail not shown here. Equal entries are not always repeated. Where two headings read alike, the source gives them in different places.

What was measured:
E. coli = assay: Log growth in MSM-lactose broth with or without DMSO; format: cell-based, Escherichia coli; conditions: 24 hours
Experimental: Lactose broth, free of both NaCl and of proteins, was used as the media in this experiment. […] Each media composition was initially inoculated with 6.75×10^6 cfu/mL of E. coli. Cultures were incubated at 25° C. for seven days. Aliquots of each culture were taken after 24 hours of culturing and at the end of seven days in culture. Aliquots were serially diluted (with Modified Letheen diluent) and plated on trypto-soy agar plates.

Bacillus coagulans = assay: Growth in simulated gastric acid supplemented with MSM; format: cell-based
Aspergillus niger [1] = assay: USP Antimicrobial Effectiveness Test (AET), MSM in TSB; format: cell-based; set-up: key to AET microorganism count: Colonies too numerous to count (TNTC); conditions: for Log Reduction from Initial Microorganism Inoculum: 1:10 dilution of MSM, 14, 28 Days; for AET microorganism count: 48 hrs
Source text: (§1) Compounds or formulated products having antimicrobial activity may be evaluated with the United States Pharmacopeia (USP) Antimicrobial Effectiveness Test (AET). The AET involves the addition of specified microorganisms (Candida albicans, Aspergillus niger, Escherichia coli, Pseudomonas aeruginosa and Staphylococcus aureus) directly to a test product at relatively high concentrations to simulate contamination. The product is held for one month, with weekly analysis of microorganism levels. Depending on the route of administration of a product, satisfaction of the AET generally requires a 1 to 3 log reduction in bacteria from initial levels, which should occur in one to two weeks, with no further increase in bacteria after two weeks. For yeast and mold, no increase from the initial inoculums level is permitted.
(§2) Inoculations were made using Candida albicans, Aspergillus niger, Escherichia coli, Pseudomonas aeruginosa and Staphylococcus aureus. Tryptic soy broth (TSB) was used as the culturing media. […] The inoculated media was held for one month, during which time the added microorganisms were enumerated weekly to determine if they were growing, dying off, or remaining near the initial inoculation level. Data points were measured in triplicate at 48 hours, 3, 5, 14, 20, 28, and 30 days. The acceptance criteria for antimicrobial effectiveness are described in detail in the USP, herein incorporated by reference.

[2] = test system: White Labs Edinburgh Ale yeast; assay: Fermentation efficiency in production of beer (Scotch Ale); format: cell-based; conditions: 0.5% MSM
Source text: This positive impact includes such organisms as fungi, yeast, and bacteria. Yeast cultures are involved in the production of beer during the fermentation process to produce ethanol and carbon dioxide. […] Wort is the liquid extracted from the mashing process during the brewing of beer or whisky. Wort contains the sugars that are fermented by the brewing yeast to produce alcohol.
This Procedure is detailed below.
After preparing the mash, the brewing process was started. […] Equipment was cleaned thoroughly with PBW. The wort chiller and filtered air stone were sanitized with brewing sanitizer (San Star Brewing Sanitizer). […] At 30 minutes of boil, a second aliquot (0.5 ounces) of Cascade hops was added. At 40 minutes of boil, third aliquot (0.5 ounces) of Cascade hops was added as well as 2 teaspoons of […] Moss. At 50 minutes of boil, a fourth aliquot (0.5 ounces) of Cascade hops was added. Wort was decanted from the brew kettle to the wort chiller and chilled to 74° F. The wort was then divided into two fermentors (each 21 liters in volume). […] Both fermentors were aerated for 25 minutes with sanitized filtered air stone.

Candida albicans = assay: USP AET, MSM in TSB; format: cell-based; set-up: key to AET microorganism count: Colonies too numerous to count (TNTC); conditions: for Log Reduction from Initial Microorganism Inoculum: 1:10 dilution of MSM, 14, 28 Days; for AET microorganism count: 48 hrs
Source text: as §1, §2

Staphylococcus aureus = assay: USP AET, MSM in TSB; format: cell-based; set-up: key to AET microorganism count: Colonies too numerous to count (TNTC); conditions: for Log Reduction from Initial Microorganism Inoculum: 1:10 dilution of MSM, 14, 28 Days; for AET microorganism count: 48 hrs
Source text: as §1, §2

Aspergillus niger [3] = assay: USP <51> AET in cosmetic cream/composition; format: cell-based; conditions: 10% MSM in cosmetic cream without preservative, 48 hrs-28 days
[4] = test system: Swine-like H1N1 Influenza A virus strain A/California/04/2009; format: cell-based
[5] = test system: normal flora found in the milks; assay: Standard plate counts of non-probiotic microorganisms in Acidophilus milks; format: cell-based

## Methylsulfonylmethane [MSM]
E. coli; 11% MSM
  reduced bacterial growth: about 2.2 logs
E. coli; 16% MSM
  reduced bacterial growth: about 1 log
Bacillus coagulans; 5% MSM, 0 hours
  Log Growth of Bacillus coagulans average: 0.26 logs
Bacillus coagulans; 5% MSM, 3 hours
  Log Growth of Bacillus coagulans average: 0 logs
  Log Growth of Bacillus coagulans in duplicate: 0 logs
Bacillus coagulans; 5% MSM, 6 hours
  Log Growth of Bacillus coagulans average: 0 logs
  Log Growth of Bacillus coagulans in duplicate: 0 logs
Bacillus coagulans; 5% MSM, 9 hours
  Log Growth of Bacillus coagulans average: 0 logs
  Log Growth of Bacillus coagulans in duplicate: 0 logs
Bacillus coagulans; 5% MSM, 12 hours
  Log Growth of Bacillus coagulans average: 0 logs
  Log Growth of Bacillus coagulans in duplicate: 0 logs
Bacillus coagulans; 5% MSM, 15 hours
  Log Growth of Bacillus coagulans average: 0.26 logs
Bacillus coagulans; 5% MSM, 24 hours
  Log Growth of Bacillus coagulans average: 0 logs
  Log Growth of Bacillus coagulans in duplicate: 0 logs
Bacillus coagulans; 5% MSM, 48 hours
  Log Growth of Bacillus coagulans average: 0 logs
  Log Growth of Bacillus coagulans in duplicate: 0 logs
Bacillus coagulans; […] MSM, 0 hours
  Log Growth of Bacillus coagulans in duplicate: 0 logs
Bacillus coagulans; […] MSM, 3 hours
  Log Growth of Bacillus coagulans in duplicate: 0 logs
Bacillus coagulans; […] MSM, 9 hours
  Log Growth of Bacillus coagulans average: 0 logs
  Log Growth of Bacillus coagulans in duplicate: 0 logs
Bacillus coagulans; […] MSM, 12 hours
  Log Growth of Bacillus coagulans in duplicate: 0 logs
Bacillus coagulans; […] MSM, 15 hours
  Log Growth of Bacillus coagulans average: 0 logs
  Log Growth of Bacillus coagulans in duplicate: 0 logs
Bacillus coagulans; […] MSM, 24 hours
  Log Growth of Bacillus coagulans average: 0 logs
  Log Growth of Bacillus coagulans in duplicate: 0 logs
Bacillus coagulans; […] MSM, 48 hours
  Log Growth of Bacillus coagulans average: 0 logs
  Log Growth of Bacillus coagulans in duplicate: 0 logs
Bacillus coagulans; […] and 5.0% MSM
  initial recovery, average: 0.26 logs
Aspergillus niger [1]; 14 days after inoculation
  Log Reduction from Initial Microorganism Inoculum: 4.3 log
Aspergillus niger [1]; 28 days after inoculation
  Log Reduction from Initial Microorganism Inoculum: 4.5 log
Aspergillus niger [1]; 1:100 dilution of MSM
  AET microorganism count: TNTC*
Aspergillus niger [1]; 1:1000 dilution of MSM
  AET microorganism count: TNTC*
[2]
  fermentor activity sooner than control: 58%
  sooner time of completion: 17-25%
  starter activity sooner than control: 80%
  time to activity, fermentor: 3.5 h
  time to maximum fermentation: 5 days
Candida albicans; 14 days after inoculation
  Log Reduction from Initial Microorganism Inoculum: 4.2 log
Candida albicans; 28 days after inoculation
  Log Reduction from Initial Microorganism Inoculum: 4.4 log
Candida albicans; 1:100 dilution of MSM
  AET microorganism count: TNTC
Candida albicans; 1:1000 dilution of MSM
  AET microorganism count: TNTC
Staphylococcus aureus; 14 days after inoculation
  Log Reduction from Initial Microorganism Inoculum: 4.5 log
Staphylococcus aureus; 28 days after inoculation
  Log Reduction from Initial Microorganism Inoculum: 4.7 log
Staphylococcus aureus; 1:100 dilution of MSM
  AET microorganism count: TNTC
Staphylococcus aureus; 1:1000 dilution of MSM
  AET microorganism count: TNTC
Aspergillus niger [3]; 48 hours after inoculation
  AET microorganism count: 8 × 10^3
Aspergillus niger [3]; 14 days after inoculation
  AET microorganism count: 6 × 10^3
Aspergillus niger [3]; 28 days after inoculation
  AET microorganism count: 5 × 10^2
[4]
  Average Log Stimulation: 0.17log10
  Average Percent Stimulation: 32.39%
  Average TCID50: 3.67log10 and 4.42log10 and 4.67log10 and 5.00log10 and 4.58log10 and 4.17log10
  CPE at dilution −6: 0000
  CPE at dilution −7: 0000
  Log Stimulation: 0.17log10
  Percent Stimulation: 32.39%
  TCID50: 3.75log10 and 3.50log10 and 4.00log10 and 4.50log10 and 4.25log10 and 4.75log10 and 5.00log10
  average percent reduction: 93.08% and 90.00% and 61.10% and 78.12%
[4]; 1% MSM
  average log10 reduction: 0.25 log10
  average percent reduction: 43.77%
[4]; 2% MSM
  average log10 reduction: 0.41 log10
  average percent reduction: 61.10%
[4]; 3% MSM
  average log10 reduction: 0.00 log10
  average percent reduction: 00.00%
[4]; 4% MSM
  average log10 reduction: 0.16 log10
  average percent reduction: 30.82%
[4]; Dose 5.312 mM (log dose 0.7252581)
  Response, % reduction: 91.680% and 53.230% and 73.700%
[4]; Dose 31.871 mM (log dose 1.503396)
  Response, % reduction: 0.000%
[4]; Dose 53.118 mM (log dose 1.725242)
  Response, % reduction: 53.230% and 73.700%
[4]; log(inhibitor) vs. normalized response, variable slope
  HillSlope, best-fit value: 0.2135
[4]; log(inhibitor) vs. normalized response, variable slope, dose in mM
  LogIC50, best-fit value: 0.7087
[5]; 5.0% MSM, throughout the study
  growth of normal flora (standard plate counts): did not allow any significant growth
[5]; A/B milk […] MSM, Day 0
  Growth of non-probiotic microorganisms in Acidophilus Milk: 370 cfu per mL
[5]; A/B milk […] MSM, Day 3
  Growth of non-probiotic microorganisms in Acidophilus Milk: 480 cfu per mL
[5]; A/B milk […] MSM, Day 7
  Growth of non-probiotic microorganisms in Acidophilus Milk: 570 cfu per mL
[5]; A/B milk […] MSM, Day 14
  Growth of non-probiotic microorganisms in Acidophilus Milk: 1460 cfu per mL
[5]; A/B milk […] MSM, Day 21
  Growth of non-probiotic microorganisms in Acidophilus Milk: 3500 cfu per mL
[5]; A/B milk […] MSM, Day 28
  Growth of non-probiotic microorganisms in Acidophilus Milk: 110000 cfu per mL
[5]; Acidophilus milk 0.50% MSM, Day 0, duplicates
  Growth of non-probiotic microorganisms in Acidophilus Milk: 20 cfu per mL and 30 cfu per mL
[5]; Acidophilus milk 0.50% MSM, Day 3, duplicates
  Growth of non-probiotic microorganisms in Acidophilus Milk: 10 cfu per mL
[5]; Acidophilus milk 0.50% MSM, Day 7, duplicates
  Growth of non-probiotic microorganisms in Acidophilus Milk: 10 cfu per mL
[5]; Acidophilus milk 0.50% MSM, Day 14, duplicates
  Growth of non-probiotic microorganisms in Acidophilus Milk: 20 cfu per mL
[5]; Acidophilus milk 0.50% MSM, Day 21, duplicates
  Growth of non-probiotic microorganisms in Acidophilus Milk: 20 cfu per mL and 40 cfu per mL
[5]; Acidophilus milk 5% MSM, Day 0, duplicates
  Growth of non-probiotic microorganisms in Acidophilus Milk: 10 cfu per mL and 20 cfu per mL
[5]; Acidophilus milk 5% MSM, Day 3, duplicates
  Growth of non-probiotic microorganisms in Acidophilus Milk: 10 cfu per mL
[5]; Acidophilus milk 5% MSM, Day 7, duplicates
  Growth of non-probiotic microorganisms in Acidophilus Milk: 10 cfu per mL and 20 cfu per mL
[5]; Acidophilus milk 5% MSM, Day 14, duplicates
  Growth of non-probiotic microorganisms in Acidophilus Milk: 20 cfu per mL and 10 cfu per mL
[5]; Acidophilus milk 5% MSM, Day 21, duplicates
  Growth of non-probiotic microorganisms in Acidophilus Milk: 20 cfu per mL and 10 cfu per mL
[5]; Acidophilus milk 5% MSM, Day 28, duplicates
  Growth of non-probiotic microorganisms in Acidophilus Milk: 10 cfu per mL
[5]; Acidophilus milk […] MSM, Day 0, duplicates
  Growth of non-probiotic microorganisms in Acidophilus Milk: 10 cfu per mL
[5]; Acidophilus milk […] MSM, Day 14, duplicates
  Growth of non-probiotic microorganisms in Acidophilus Milk: <10 cfu per mL
